Test results as given in article PMC12298827, “Subchronic Toxicities of Four Per- and Polyfluoroalkyl Substances (PFASs) by Oral Exposure in Sprague–Dawley Rats” (Toxics, 2025).

Experiments:
male SD rats = assay: Single-dose tolerability study, oral gavage; assay type: in vivo, rat; conditions: single oral dose in corn oil, n = 3/dose
Experimental: Tolerability, 14-day dose-range-finding, and 90-day subchronic toxicity studies were conducted at Inotiv (Gaithersburg, MD, USA), monitored by the Research Triangle Institute (RTI) (Durham, NC, USA) and sponsored and funded by the EPA. Tolerability studies used four PFAS dose levels plus a control, with the high doses not to exceed 1000 mg/kg (subject to solubility in corn oil, dose volume of 5 or 10 mL/kg) and lower doses separated by threefold spacing. The dose levels for PFHI, MHFPK, and CTFPA were […]. The dose levels for PFNAC were 0, 25, 75, 225, and 667 mg/kg. Tolerability was studied using male rats (n = 3 rats/group) that received a single dose by oral gavage. The rats were euthanized at 48 hours post dosing. The data collected were bodyweight (BW) and BW changes (BWCs), feed consumption (FC) and water consumption (WC), cage-side observations, and physical exams; no necropsies were performed.

male and female SD rats = assay: 14-day dose-range-finding oral gavage study; assay type: in vivo, rat; conditions: both sexes, all doses
Experimental: (§1) Dose-range-finding (14-day) studies were conducted using male and female rats to establish dose levels for 90-day studies and identify potential target organ toxicities. Male and female rats (n = 5 sex/group, a control and three dose groups, corn oil vehicle dose volume of 5 mL/kg) were administered PFASs by oral gavage daily for 14 days and euthanized on study day (SD) 15. The dose levels for PFHI, CTFPA, and MHFPK were 0, 30, 100, and 300 mg/kg-day. The dose levels for PFNAC were 0, 10, 30, and 100 mg/kg-day. The in vivo data collected included BW, BWCs, FC, cage-side observations, and physical exams. Gross necropsies, relative and absolute organ weights, and clinical chemistry data were collected for all the groups. Macroscopic and microscopic pathology examinations were conducted for the control and high-dose groups initially; the other groups were examined if justified by experimental findings. Plasma samples were analyzed ~2 h post dosing on day 1 and at day 15 for the parent PFAS chemical.
Neurotoxicity was evaluated using the functional observational battery (FOB) and measuring locomotor activity (LMA) 2–4 h post dosing on SDs 78–80 and 80–84, respectively. For both the 14- and 90-day studies, an ophthalmologic examination was conducted prior to randomization and near the end of the study, using indirect ophthalmoscopy and slit–lamp biomicroscopy (as needed) after the administration of a mydriatic solution.
Hematology, biochemistry, and coagulation endpoints were measured at the termination of the study. A Siemens Advia 2120i hematology analyzer (Siemens Healthineers, Erlangen, Germany) was used to measure (or calculate) the parameters related to the complete blood count, leukocyte differential count, and reticulocyte count. The hematology parameters are listed and described in Table 2. The prothrombin time […] and activated partial thromboplastin time (APTT) were measured using an Instrumentation Laboratory (Bedford, MA, USA) ACL Elite Pro coagulation analyzer (laser–nephelometric centrifugal method).
At necropsy, the rats were visually examined for external abnormalities and organ weights (absolute and relative to the BW and brain weight), which were recorded (paired organs weighed together). The tissues were preserved in 10% neutral buffered formalin (NBF), except for the ocular tissues, testes, and epididymides, which were preserved in modified Davidson’s fixative and later transferred to 10% NBF. Bone marrow smears were prepared from the femurs, and the slides were air-dried, fixed in methanol, stained, and stored at room temperature for possible future evaluation. The preserved tissues were embedded in paraffin, sectioned, stained with hematoxylin and eosin, and examined by a board-certified veterinary pathologist.

[1] = Parent chemical in rat plasma, 14-day study; assay type: in vivo; conditions: for concentration at 15 day: Sprague-Dawley, rat, plasma, oral
Experimental: as §1
On SD 1 of the 14-day study (~2 h post dosing), 0.2 mL of blood was collected via tail vein puncture in tubes containing K3EDTA and stored on wet ice. Prior to the scheduled euthanasia, blood (~1 mL) was collected from the jugular vein in tubes containing K3EDTA and stored on wet ice on SD 15, for the 14-day study, and SD 91, for the 90-day study. All the tubes were centrifuged at an ~1500 relative centrifugal force within 1 h of collection for 15 min at 5 ± 3 °C. The plasma was stored at −75 ± 15 °C until the analysis. PFNAC and PFHI were analyzed using a headspace GC–mass spectrometry (MS) method, as summarized in Table S3, and CTFPA was analyzed using an ultra-HPLC-MS method, as summarized in Table S4. The MHFPK samples were not analyzed because a method suitable for plasma was not available. The details concerning the preparation of the samples, method blanks, and matrix and QC standards for the analysis are available in the appendices to the study reports.

[2] = Solubility in dosing vehicles; assay type: physicochemical; conditions: corn oil, oil or lipid; read-out: Solubility in corn oil
Description: Based on solubility, corn oil (Welsh, Holme & Clark Inc., Newark, NJ, USA) was used as the vehicle for all four PFASs. Gas chromatography (GC) with flame ionization detection (FID) was used for the analysis of the PFNAC, PFHI, and MHFPK formulations, and a high-performance liquid chromatography (HPLC) method with ultraviolet spectroscopy was used for the CTFPA formulation. The details of the dosing solution analytical conditions are summarized in supplemental Tables S1 and S2. These analytical methods were developed specifically for these subchronic toxicity studies. […] Dosing solutions were prepared and replaced between at least every 29 days and no more than every 39 days.
PFNAC, PFHI, and MHFPK were soluble in corn oil up to 67, 200, and 100 mg/mL, respectively. As solubility in aqueous vehicles was 40 mg/mL or less for all three chemicals, corn oil was chosen as the vehicle. PFNAC was stable at the ambient temperature for 51 days at target concentrations of 0.2 and 10 mg/mL PFHI was stable in corn oil at ambient temperatures and target concentrations of 1 and 80 mg/mL for up to 70 days. MFHPK was stable in corn oil at room temperature for up to 44 days at target concentrations of 5 and 100 mg/mL. CTFPA was soluble in both deionized (DI) water and corn oil at 200 mg/mL when stored refrigerated overnight. […] Thus, corn oil was chosen as the vehicle for CTFPA. The stability of the CTFPA in the corn oil was evaluated for 8, 13, 15, 23, 35, and 42 days stored refrigerated in plastic bottles. CTFPA at 40 mg/mL was stable for up to 42 days. CTFPA at 0.6 mg/mL was stable for up to […] when refrigerated in plastic bottles but by 42 days had decreased to approximately 81%.

FC(F)(F)C(F)(F)C(F)(F)C(F)(F)CCI [PFHI, 1H,1H,2H,2H-Perfluorohexyl iodide]
Summary of observations (male SD rats): No mortality and no abnormal clinical observations, no effect on bodyweight; some bodyweight changes in high-dose group were considered as chemical-related
Bodyweight and bodyweight gain (male and female SD rats): No changes
Clinical chemistry (male and female SD rats): Mild increases in cholesterol levels in both sexes at 300 mg/kg-day and mild increases in glucose in males only at ≥100 mg/kg-day; from minimal to moderate increases in phosphorus in both sexes in all the dose groups
Clinical observations (male and female SD rats): None
Coagulation endpoints (male and female SD rats): No effects
Feed consumption (male and female SD rats): Females: dose-dependent increase, not correlated with bodyweight changes; Males: no effects
Gross lesions (male and female SD rats): None
Hematology (male and female SD rats): Decreased red cell mass at 300 mg/kg-day in females and all the dose levels in males; minimal increases in absolute reticulocyte concentrations and from minimal to mild increases in MPV in both sexes at all the dose levels
Histopathology (male and female SD rats): Mild liver hypertrophy in 4/5 males at 300 mg/kg-day and in 1/5 at 100 mg/kg-day; none in females
Morbidity and mortality (male and female SD rats): None
Ophthalmology (male and female SD rats): No ocular lesions
Organ weight changes (male and female SD rats): Increases in absolute and relative liver weights in males at 300 mg/kg-day and increases in liver weight/bodyweight ratio at ≥100 mg/kg-day; no changes in females
Lower plasma concentration for SD 15 compared to SD 1 ([1]; 14-day study): 10- to 100 fold
concentration at 15 day ([1]; female, Day 15, 300 mg/kg-day): 14.3 ± 7.12 ng/mL
concentration at 15 day ([1]; male, Day 15, 100 mg/kg-day): 4.87 ± 1.93 ng/mL
concentration at 15 day ([1]; male, Day 15, 300 mg/kg-day): 26.7 ± 8.79 ng/mL
Parent chemical in plasma ([1]; female, Day 1, 30 mg/kg-day): 14.7 ± 8.21 ng/mL
Parent chemical in plasma ([1]; female, Day 1, 100 mg/kg-day): 470 ± 427 ng/mL
Parent chemical in plasma ([1]; female, Day 1, 300 mg/kg-day): 1070 ± 689 ng/mL
Parent chemical in plasma ([1]; female, Day 15, 30 mg/kg-day): ND/BLOD
Parent chemical in plasma ([1]; female, Day 15, 100 mg/kg-day): ≤LOQ
Parent chemical in plasma ([1]; male, Day 1 (2 hours post dosing), 30 mg/kg-day): 159 ± 79.3 ng/mL
Parent chemical in plasma ([1]; male, Day 1 (2 hours post dosing), 100 mg/kg-day): 333 ± 147 ng/mL
Parent chemical in plasma ([1]; male, Day 1 (2 hours post dosing), 300 mg/kg-day): 2040 ± 1250 ng/mL
Parent chemical in plasma ([1]; male, Day 15, 30 mg/kg-day): <BLOD/≤LOQ
solubility [2]: ≤ 200 mg/mL
